Measurements taken from ChEMBL document CHEMBL1150056, “5-Epi-isospongiaquinone, a new sesquiterpene/quinone antibiotic from an Australian marine sponge, Spongia hispida” (1992).

How the values were obtained:
Staphylococcus aureus = experiment: Antibacterial activity against Staphylococcus aureus assessed per disk; type: functional
Micrococcus sp. = experiment: Antibacterial activity against Micrococcus sp. assessed per disk; type: functional

| SMILES | MIC (Staphylococcus aureus) | MIC (Micrococcus sp.) |
| --- | --- | --- |
| COC1=CC(=O)C(O)=C(C[C@]2(C)[C@@H](C)CC[C@@]3(C)C(C)=CCC[C@@H]23)C1=O | 20 µg | 20 µg |
| CCOC1=CC(=O)C(O)=C(C[C@]2(C)[C@@H](C)CC[C@@]3(C)C(C)=CCC[C@@H]23)C1=O | 50 µg | 50 µg |
